{"source": "patent US8017828B2", "about": "“Utilization of rare sugars in plant or microorganism” (Shikoku Research Institute Incorporated, priority 2004, dated 2011)", "system": "lipoxygenase gene", "experiment": "Northern blotting of lipoxygenase gene expression in sprayed cut leaves of rough lemon", "type": "in vivo", "conditions": "0.5 mM sprayed on cut leaves, 2 to 48 hours", "experimental": "Cut leaves of rough lemon were treated by spraying each of 0.5 mM L-psicose, L- & D-tagatose and D-sorbose thereon and were let stand for 2, 4, 6, 12, 24 and 48 hours at 24° C. under the dark condition in a moist chamber. Then, from the treated leaves, total RNA was extracted and the expression of genes of lipoxygenase and chitinase was analyzed by Northern blotting. The assays and analyses were repeated at least 3 times in all the treated plots, and equivalent results were obtained."}
{"smiles": "O=C(CO)[C@H](O)[C@H](O)[C@H](O)CO", "note": "[D-psicose]", "values": [{"measurement": "induction of the expression of lipoxygenase gene, persistency", "result": "maintained for the longest time"}]}
